These results are taken from US20190262294A1, “MODIFIER SYSTEM FOR COMPOSITIONS CONTAINING LAYERED DOUBLE HYDROXIDE” (OXFORD PHARMASCIENCE LIMITED, priority 2016, published 2019).

The nature of the data set: solvent system method: total amount of ibuprofen released from the LDH. The class given is physicochemical. The note with it: 200 mg dose of ibuprofen; 0.05M HCl 50 mL, 15 min.

Protocol: This method determines the total amount of ibuprofen that is released from the LDH matrix.
A sample is then removed for analysis to determine the total amount of ibuprofen (dissolved and undissolved) which is released into the HCl solution. Further dilution is conducted as required.
Samples of the of the reaction solution were removed and used to determine the amount of ibuprofen released by each of the modifier systems using both the solvent system method and the solubility method described above.

For `CC(C)Cc1ccc(C(C)C(=O)O)cc1` (stereo not shown) [Ibuprofen free acid], the “TOTAL AMOUNT OF IBUPROFEN RELEASED FROM THE LDH AS DETERMINED USING THE SOLVENT METHOD” value is reported as 95%.
